System: human foreskin primary keratinocytes
Assay: Scratch wound healing migration assay, primary keratinocytes
Format: cell-based
Description: Keratinocytes isolation, culture conditions and characterization—The isolated epidermis was placed in a petri dish containing HEPES buffer for 10 minutes at room temperature, then treated with trypsin at 37° C. until the epidermis became loose and medium cloudy due to keratinocytes release. The cloudy medium was collected and trypsin activity neutralized using fetal bovine serum (FBS) in 1:1 ratio. The epidermis suspended keratinocytes were centrifuges at 1500 rpm for 5 minutes. The pellet resuspended in KGM-GOLD keratinocytes medium (Lonza KGM gold and supplements, Catlog No. 00192151 and 00192152). The isolated foreskin cultured on a culture dish and placed at 37° C. in 5% CO2 incubator for 1-2 days to allow keratinocytes to adhere. Adhere keratinocytes were continued incubation in KGM-Gold medium until cells reach about 80% confluent.
Keratinocytes/Schwann cells/fibroblasts (7×10^4 cells/well keratinocytes and 3.5×10^4 cells/well of SCs and FBs) with their respective medium were seeded on pre-coated either with collagen-I/PLL/no 96-well ImageLock microplate for 6 hours (Incucyte-sartorius plate, Cat log 4379). For the drug treatment cells were pretreated with 4-AP prior to coating for 16-18 hours. Next, the wound scratch was created using IncuCyte automated system (Essen BioScience). After scratches the cells washed with PBS and the respective cells medium was added with or without 1 mM of 4-AP. The plate was incubated in Incucyte automated imaging system, wound healing and cells migration was monitored by time-lapse photography capturing every hour from 0 to 42 hours. The relative area of wound size and cells migration at each time point was analyzed using IncuCyte™ Scratch Wound Cell Migration Software Module (Essen BioScience) and the percent of wound healing was calculated from the area measured after scratching relative to the basal area as expressed in pixels.
Indirect immunofluorescence was used to identify, characterize and to analyze the proliferation after 4-AP treatment. […]

Nc1ccncc1 [4-AP, 4-aminopyridine]
time of complete scratch closure (1 mM 4-AP, control closed at 32 hours): 18 h
SOX10 and NGF expression in keratinocytes (4-AP treated vs no treatment): both increased
expression of keratins associated with keratinocyte differentiation (K10) (4-AP treated vs no treatment): did not increase

Reference: patent publication US20240024216A1, “METHODS AND MATERIALS FOR TREATING HAIR LOSS” (The Penn State Research Foundation, priority 2021, published 2024)
